Where a SMILES comes first, the peptide text is derived from it. [ ]: non-standard residue; d: D form. hLeu = CC(C)CC[C@H](N)C(=O)O
What follows are compounds tested against T1, Interleukin-23 receptor (Homo sapiens, UniProt Q5VWK5) (assay: Inhibition of interleukin-23 binding to human interleukin-23 receptor incubated for 2 hrs by competitive binding ELISA).
T1 sequence (Q5VWK5 whole entry): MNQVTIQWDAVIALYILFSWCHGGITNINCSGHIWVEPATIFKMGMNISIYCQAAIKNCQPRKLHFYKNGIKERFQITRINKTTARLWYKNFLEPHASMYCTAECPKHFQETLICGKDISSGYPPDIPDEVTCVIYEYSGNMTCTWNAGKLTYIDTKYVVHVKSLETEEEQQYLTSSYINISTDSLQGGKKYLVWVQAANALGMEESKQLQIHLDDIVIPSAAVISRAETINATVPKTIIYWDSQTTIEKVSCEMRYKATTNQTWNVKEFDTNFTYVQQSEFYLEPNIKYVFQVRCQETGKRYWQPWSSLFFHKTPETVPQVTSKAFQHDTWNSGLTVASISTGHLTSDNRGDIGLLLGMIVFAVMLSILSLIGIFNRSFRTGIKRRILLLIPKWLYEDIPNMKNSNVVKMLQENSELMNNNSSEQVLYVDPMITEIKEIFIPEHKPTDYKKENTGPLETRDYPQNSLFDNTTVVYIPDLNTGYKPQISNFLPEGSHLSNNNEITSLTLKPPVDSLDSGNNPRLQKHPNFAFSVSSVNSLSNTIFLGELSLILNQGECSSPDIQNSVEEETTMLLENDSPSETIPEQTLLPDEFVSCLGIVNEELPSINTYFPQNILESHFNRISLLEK
In the case of `CC(=O)N[C@@H](CS)C(=O)N[C@@H](CCCNC(=N)N)C(=O)N[C@@H](CC(=O)O)C(=O)N[C@@H](Cc1c[nH]c2ccccc12)C(=O)N[C@@H](CCC(N)=O)C(=O)N[C@@H](CS)C(=O)N[C@@H](Cc1ccc(O)cc1)C(=O)N[C@@H](Cc1c[nH]c2ccccc12)C(=O)N[C@H](CCCNC(=N)N)C(=O)N[C@H](CCCCN)C(=O)N[C@@H](Cc1ccccc1)C(=O)NCC(=O)NCCOCCC(=O)N[C@H](CCCCN)C(N)=O`, the IC50 is reported as greater than 1 µM. `COc1ccc([C@@H]2NC(=O)[C@H]([C@@H](C)O)NC(=O)[C@H](CCC(N)=O)NC(=O)[C@@H](NC(C)=O)CCSC[C@@H](C(=O)N[C@@H](Cc3ccc(OCCN)cc3)C(=O)N[C@@H](Cc3ccc4ccccc4c3)C(=O)N[C@@](C)(CCCCN)C(=O)N[C@@H](CCC(=O)O)C(=O)N[C@@H](CC(N)=O)C(=O)NCC(N)=O)NC(=O)[C@H](CCC(N)=O)NC2=O)cc1` was tested, and the IC50 was greater than 3 µM. `C[C@@H](O)[C@H](NC(=O)[C@H](CC(=O)O)NC(=O)[C@@H](N)CS)C(=O)N[C@@H](Cc1c[nH]c2ccccc12)C(=O)N[C@@H](CCCCN)C(=O)N[C@@H](CS)C(=O)N[C@@H](Cc1ccc(O)cc1)C(=O)N[C@@H](Cc1c[nH]c2ccccc12)C(=O)N[C@@H](Cc1cnc[nH]1)C(=O)N[C@@H](CCCNC(=N)N)C(=O)N[C@@H](CCC(N)=O)C(=O)N[C@@H](CO)C(N)=O` (H-CDTWKCYWHRQS-NH2) showed an IC50 of 0.5 to 1 µM. `CC(=O)N[C@@H](CS)C(=O)N[C@@H](CCCCNC(=O)COCC(=O)NCCCC[C@H](NC(=O)[C@H](CS)NC(C)=O)C(=O)N[C@@H](CC(=O)O)C(=O)N[C@@H](Cc1c[nH]c2ccccc12)C(=O)N[C@H](C(=O)N[C@@H](CS)C(=O)N[C@@H](Cc1ccc(O)cc1)C(=O)N[C@@H](Cc1c[nH]c2ccccc12)C(=O)N[C@@H](Cc1cnc[nH]1)C(=O)N[C@H](C(=O)N[C@@H](Cc1ccccc1)C(=O)NCC(=O)O)[C@@H](C)O)C(C)C)C(=O)N[C@@H](CC(=O)O)C(=O)N[C@@H](Cc1c[nH]c2ccccc12)C(=O)N[C@H](C(=O)N[C@@H](CS)C(=O)N[C@@H](Cc1ccc(O)cc1)C(=O)N[C@@H](Cc1c[nH]c2ccccc12)C(=O)N[C@@H](Cc1cnc[nH]1)C(=O)N[C@H](C(=O)N[C@@H](Cc1ccccc1)C(=O)NCC(=O)O)[C@@H](C)O)C(C)C` was tested, and the IC50 was greater than 10 µM. Compound `C[C@@H](O)[C@H](NC(=O)[C@H](CCCNC(=N)N)NC(=O)[C@@H](N)CS)C(=O)N[C@@H](Cc1c[nH]c2ccccc12)C(=O)N[C@@H](CCC(N)=O)C(=O)N[C@@H](CS)C(=O)N[C@@H](Cc1ccc(O)cc1)C(=O)N[C@@H](Cc1c[nH]c2ccccc12)C(=O)N[C@@H](CCCNC(=N)N)C(=O)N[C@@H](CCCCN)C(=O)N[C@@H](Cc1ccccc1)C(=O)NCC(N)=O` (H-CRTWQCYWRKFG-NH2) has an IC50 of less than 0.5 µM. `CC(C)[C@H](NC(=O)[C@H](Cc1c[nH]c2ccccc12)NC(=O)[C@H](CC(=O)O)NC(=O)[C@H](C)NC(=O)[C@@H](N)CS)C(=O)N[C@@H](CS)C(=O)N[C@@H](Cc1ccc(O)cc1)C(=O)N[C@@H](Cc1c[nH]c2ccccc12)C(=O)N[C@@H](Cc1cnc[nH]1)C(=O)N[C@H](C(=O)N[C@@H](Cc1ccccc1)C(N)=O)[C@@H](C)O` was tested, and the IC50 was greater than 1 µM. `CC(=O)NCC(=O)N[C@H](CC(N)=O)C(=O)N[C@H](CCC(=O)O)C(=O)N[C@H](CC(C)C)C(=O)N[C@H](Cc1c[nH]c2ccccc12)C(=O)N[C@H](Cc1ccc(O)cc1)C(=O)N[C@H](CS)C(=O)N[C@H](CCC(N)=O)C(=O)N[C@H](Cc1c[nH]c2ccccc12)C(=O)N[C@@H](C(=O)N[C@H](CCC(N)=O)C(=O)N[C@H](CS)C(N)=O)[C@H](C)O` gave an IC50 greater than 30 µM. `CC(=O)N[C@@H](CS)C(=O)N[C@H](C(=O)N[C@H](C(=O)N[C@@H](Cc1c[nH]c2ccccc12)C(=O)N[C@@H](CCC(=O)O)C(=O)N[C@@H](CS)C(=O)N[C@@H](Cc1ccc(O)cc1)C(=O)N[C@@H](Cc1c[nH]c2ccccc12)C(=O)N[C@@H](Cc1cnc[nH]1)C(=O)N[C@@H](CCC(N)=O)C(=O)N[C@@H](Cc1ccccc1)C(=O)NCC(N)=O)[C@@H](C)O)[C@@H](C)O` (Ac-CTTWECYWHQFG-NH2) was tested, and the IC50 was less than 0.5 µM. `CC(=O)N[C@@H](CS)C(=O)N[C@@H](CCC(N)=O)C(=O)N[C@H](C(=O)N[C@@H](Cc1c[nH]c2ccccc12)C(=O)N[C@@H](CCC(N)=O)C(=O)N[C@@H](CS)C(=O)N[C@@H](Cc1ccc(O)cc1)C(=O)N[C@@](C)(Cc1c[nH]c2ccccc12)C(=O)N[C@@H](CCCNC(=N)N)C(=O)N[C@H](C(=O)N[C@@H](CC(N)=O)C(=O)NCC(=O)NCCC(=O)N[C@H](CCCCN)C(N)=O)C(C)C)[C@@H](C)O` gave an IC50 of 6 µM. With `CC(=O)N[C@@H](CS)C(=O)N[C@@H](C)C(=O)N[C@@H](CC(=O)O)C(=O)N[C@@H](Cc1c[nH]c2ccccc12)C(=O)N[C@H](C(=O)N[C@@H](CS)C(=O)N[C@@H](Cc1ccc(O)cc1)C(=O)N[C@@H](Cc1c[nH]c2ccccc12)C(=O)N[C@@H](Cc1cnc[nH]1)C(=O)N[C@@H](CCC(=O)O)C(=O)N[C@@H](Cc1ccccc1)C(=O)NCC(N)=O)C(C)C` the IC50 was 0.5 to 1 µM. With `CC(=O)N[C@@H](CS)C(=O)N[C@@H](CCC(N)=O)C(=O)N[C@H](C(=O)N[C@@H](Cc1c[nH]c2ccccc12)C(=O)N[C@@H](CCC(N)=O)C(=O)N[C@@H](CS)C(=O)N[C@@H](Cc1ccc(O)cc1)C(=O)N[C@@H](Cc1c[nH]c2ccccc12)C(=O)N[C@@H](CCCNC(=N)N)C(=O)N[C@H](C(=O)N[C@@H](CC(N)=O)C(=O)NCC(=O)NCCOCC(=O)N[C@H](CCCCN)C(N)=O)[C@@H](C)O)[C@@H](C)O` the IC50 was less than 0.5 µM. For `CC(=O)N[C@@H](CS)C(=O)N[C@@H](C)C(=O)N[C@@H](CC(=O)O)C(=O)N[C@@H](Cc1c[nH]c2ccccc12)C(=O)N[C@H](C(=O)N[C@@H](CS)C(=O)N[C@@H](Cc1ccc(O)cc1)C(=O)N[C@@H](Cc1c[nH]c2ccccc12)C(=O)N[C@@H](Cc1cnc[nH]1)C(=O)N[C@@H](CCCCN)C(=O)N[C@@H](Cc1ccccc1)C(=O)NCC(=O)O)C(C)C`, the IC50 was greater than 1 µM. In the case of `CC(=O)N[C@@H](CS)C(=O)N[C@@H](CCC(N)=O)C(=O)N[C@H](C(=O)N[C@@H](Cc1c[nH]c2ccccc12)C(=O)N[C@@H](CCC(N)=O)C(=O)N[C@@H](CS)C(=O)N[C@@H](Cc1ccc(O)cc1)C(=O)N[C@@H](Cc1c[nH]c2ccccc12)C(=O)N[C@@H](CCCNC(=N)N)C(=O)N(C)[C@@H](CCCNC(=N)N)C(=O)N[C@@H](CC(N)=O)C(=O)NCC(=O)NCCOCC(=O)N[C@H](CCCCN)C(N)=O)[C@@H](C)O`, the IC50 is reported as greater than 1 µM. In the case of `CSCC[C@H](NC(=O)[C@H](Cc1c[nH]c2ccccc12)NC(=O)[C@H](CC(=O)O)NC(=O)[C@H](C)NC(=O)[C@@H](N)CS)C(=O)N[C@@H](CS)C(=O)N[C@@H](Cc1ccc(O)cc1)C(=O)N[C@@H](Cc1c[nH]c2ccccc12)C(=O)N[C@@H](Cc1cnc[nH]1)C(=O)N[C@@H](CCC(=O)O)C(=O)N[C@@H](Cc1ccc(O)cc1)C(=O)NCC(N)=O` (H-CADWMCYWHEYG-NH2), the IC50 is reported as 0.5 to 1 µM. For `CC(=O)N[C@@H](CS)C(=O)N[C@@H](CCC(N)=O)C(=O)N[C@H](C(=O)N[C@@H](Cc1c[nH]c2ccccc12)C(=O)N[C@@H](CCC(N)=O)C(=O)N[C@@H](CS)C(=O)N[C@H](Cc1ccc(O)cc1)C(=O)N[C@@H](Cc1c[nH]c2ccccc12)C(=O)N[C@@H](CCC(C)C)C(=O)N[C@@H](CCC(=O)O)C(=O)N[C@@H](CC(N)=O)C(=O)NCC(N)=O)[C@@H](C)O`, the IC50 was greater than 30 µM. `CC(=O)N[C@@H](CS)C(=O)N[C@@H](C)C(=O)N[C@@H](CC(=O)O)C(=O)N[C@@H](Cc1c[nH]c2ccccc12)C(=O)N[C@H](C(=O)N[C@@H](CS)C(=O)N[C@@H](Cc1ccc(O)cc1)C(=O)N[C@@H](Cc1c[nH]c2ccccc12)C(=O)N[C@@H](Cc1cnc[nH]1)C(=O)N[C@H](C(=O)N[C@@H](Cc1ccccc1)C(=O)NCC(=O)NCCOCCC(=O)N[C@H](CCCNC(=N)N)C(=O)O)[C@@H](C)O)C(C)C` gave an IC50 of less than 0.5 µM. `CC(=O)N[C@@H](CS)C(=O)N[C@@H](C)C(=O)N[C@@H](CC(=O)O)C(=O)N[C@@H](Cc1c[nH]c2ccccc12)C(=O)N[C@H](C(=O)N[C@@H](CS)C(=O)N[C@@H](Cc1ccc(O)cc1)C(=O)N[C@@H](Cc1c[nH]c2ccccc12)C(=O)N[C@@H](Cc1cnc[nH]1)C(=O)N[C@@H](CCCNC(=N)N)C(=O)N[C@@H](CO)C(=O)N[C@H](C(=O)NCC(=O)NCC(=O)N[C@@H](CCC(N)=O)C(=O)N[C@@H](Cc1cnc[nH]1)C(N)=O)[C@@H](C)O)C(C)C` (Ac-CADWVCYWHRSTGGQH-NH2) showed an IC50 of 0.5 to 1 µM. For `CC(=O)N[C@@H](CS)C(=O)N[C@@H](C)C(=O)N[C@@H](CC(=O)O)C(=O)N[C@@H](Cc1c[nH]c2ccccc12)C(=O)N[C@H](C(=O)N[C@@H](CS)C(=O)N[C@@H](Cc1ccc(O)cc1)C(=O)N[C@@H](Cc1c[nH]c2ccccc12)C(=O)N[C@@H](CCCN)C(=O)N[C@H](C(=O)N[C@@H](Cc1ccccc1)C(=O)NCC(=O)NCCC(=O)N[C@H](CCCCN)C(N)=O)C1CCCCC1)C(C)C`, the IC50 was greater than 30 µM. `CC(=O)N[C@@H](CS)C(=O)N[C@@H](CCC(N)=O)C(=O)N[C@H](C(=O)N[C@@H](CCCNC(=N)N)C(=O)N[C@@H](CCC(N)=O)C(=O)N[C@@H](CS)C(=O)N[C@@H](Cc1ccc(O)cc1)C(=O)N[C@@H](Cc1c[nH]c2ccccc12)C(=O)N[C@@H](CCC(C)C)C(=O)N[C@@H](CCC(=O)O)C(=O)N[C@@H](CC(N)=O)C(=O)NCC(N)=O)[C@@H](C)O` (Ac-CQTRQCYW[hLeu]ENG-NH2) showed an IC50 greater than 10 µM.

Source: ChEMBL document CHEMBL4417631, “Oral peptide inhibitors of interleukin-23 receptor and their use to treat inflammatory bowel diseases” (2017)
